Source: PubChem BioAssay (NCI)
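Five concentrations, 48 hours, 96-well plates. Here, GI50 denotes the concentration required for 50% inhibition of growth. TGI: concentration producing complete growth inhibition.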 Where a SMILES comes first, the peptide text is derived from it. [ ]: non-standard residue; d: D form. The star is where a group is joined. ξ: configuration not given here. ξNMe2Val = CC(C)C(C(=O)*)N(C)C; NMeV = CN[CH](C(=O)O)C(C)C; NHBn = c1ccc(CN*)cc1

Experiments:
Assay in all cases: inhibition of tumour cell growth, NCI panel, 48 h
NCI-H23 lung = tested on: NCI-H23 lung
SNB-75 CNS = tested on: SNB-75 CNS
HCT-116 colon = tested on: HCT-116 colon
NCI/ADR-RES ovarian = tested on: NCI/ADR-RES ovarian
BT-549 breast = tested on: BT-549 breast
TK-10 renal = tested on: TK-10 renal
KM12 colon = tested on: KM12 colon
RPMI-8226 leukemia = tested on: RPMI-8226 leukemia
SK-MEL-2 melanoma = tested on: SK-MEL-2 melanoma
HL-60(TB) leukemia = tested on: HL-60(TB) leukemia
ACHN renal = tested on: ACHN renal
HCT-15 colon = tested on: HCT-15 colon
MCF7 breast = tested on: MCF7 breast
OVCAR-8 ovarian = tested on: OVCAR-8 ovarian
COLO 205 colon = tested on: COLO 205 colon
HT29 colon = tested on: HT29 colon
SF-295 CNS = tested on: SF-295 CNS
U251 CNS = tested on: U251 CNS
NCI-H522 lung = tested on: NCI-H522 lung
SN12C renal = tested on: SN12C renal
SK-MEL-28 melanoma = tested on: SK-MEL-28 melanoma
SK-MEL-5 melanoma = tested on: SK-MEL-5 melanoma
UACC-257 melanoma = tested on: UACC-257 melanoma
OVCAR-4 ovarian = tested on: OVCAR-4 ovarian
NCI-H460 lung = tested on: NCI-H460 lung
T-47D breast = tested on: T-47D breast
MDA-N = tested on: MDA-N
SF-268 CNS = tested on: SF-268 CNS
M14 melanoma = tested on: M14 melanoma
HCC-2998 colon = tested on: HCC-2998 colon
SK-OV-3 ovarian = tested on: SK-OV-3 ovarian
SW-620 colon = tested on: SW-620 colon
K-562 leukemia = tested on: K-562 leukemia
CAKI-1 renal = tested on: CAKI-1 renal
MDA-MB-231 breast = tested on: MDA-MB-231 breast
SNB-19 CNS = tested on: SNB-19 CNS
A549 NSCLC = tested on: A549 NSCLC
UACC-62 melanoma = tested on: UACC-62 melanoma
UO-31 renal = tested on: UO-31 renal
HOP-62 NSCLC = tested on: HOP-62 NSCLC
NCI-H226 lung = tested on: NCI-H226 lung
786-0 renal = tested on: 786-0 renal
PC-3 prostate = tested on: PC-3 prostate
MALME-3M melanoma = tested on: MALME-3M melanoma
DU-145 prostate = tested on: DU-145 prostate
MOLT-4 leukemia = tested on: MOLT-4 leukemia
IGROV1 ovarian = tested on: IGROV1 ovarian
OVCAR-3 ovarian = tested on: OVCAR-3 ovarian
EKVX NSCLC = tested on: EKVX NSCLC
SF-539 CNS = tested on: SF-539 CNS
RXF 393 renal = tested on: RXF 393 renal
HS 578T breast = tested on: HS 578T breast
HOP-92 NSCLC = tested on: HOP-92 NSCLC
CCRF-CEM leukemia = tested on: CCRF-CEM leukemia
MDA-MB-435 = tested on: MDA-MB-435
LOX IMVI melanoma = tested on: LOX IMVI melanoma
OVCAR-5 ovarian = tested on: OVCAR-5 ovarian

COc1ccc(C(=O)C#Cc2cn(C3CC(O)C(CO)O3)c(=O)[nH]c2=O)cc1 (stereo unspecified)
TGI (NCI-H23 lung): > 100 µM | TGI (SNB-75 CNS): > 100 µM | TGI (HCT-116 colon): > 100 µM | TGI (NCI/ADR-RES ovarian): > 100 µM | TGI (BT-549 breast): 40.4 µM | TGI (TK-10 renal): > 100 µM | TGI (KM12 colon): > 100 µM | TGI (RPMI-8226 leukemia): > 100 µM | TGI (SK-MEL-2 melanoma): > 100 µM | TGI (HL-60(TB) leukemia): > 10 µM | TGI (ACHN renal): > 100 µM | TGI (HCT-15 colon): > 100 µM | TGI (MCF7 breast): > 100 µM | TGI (OVCAR-8 ovarian): > 100 µM | TGI (COLO 205 colon): > 100 µM | TGI (HT29 colon): > 100 µM | TGI (SF-295 CNS): > 100 µM | TGI (U251 CNS): > 100 µM | TGI (NCI-H522 lung): 24.5 µM | TGI (SN12C renal): > 100 µM | TGI (SK-MEL-28 melanoma): 50.5 µM | TGI (SK-MEL-5 melanoma): > 100 µM | TGI (UACC-257 melanoma): > 100 µM | TGI (OVCAR-4 ovarian): > 100 µM | TGI (NCI-H460 lung): > 100 µM | TGI (T-47D breast): 35.4 µM | TGI (MDA-N): > 100 µM | TGI (SF-268 CNS): > 100 µM | TGI (M14 melanoma): 75 µM | TGI (HCC-2998 colon): > 100 µM | TGI (SK-OV-3 ovarian): > 100 µM | TGI (SW-620 colon): > 100 µM | TGI (K-562 leukemia): > 100 µM | TGI (CAKI-1 renal): > 100 µM | TGI (MDA-MB-231 breast): > 100 µM | TGI (SNB-19 CNS): > 100 µM | TGI (A549 NSCLC): > 100 µM | TGI (UACC-62 melanoma): > 100 µM | TGI (UO-31 renal): > 100 µM | TGI (HOP-62 NSCLC): > 100 µM | TGI (NCI-H226 lung): > 100 µM | TGI (786-0 renal): > 100 µM | TGI (PC-3 prostate): > 100 µM | TGI (MALME-3M melanoma): 22.7 µM | TGI (DU-145 prostate): > 100 µM | TGI (MOLT-4 leukemia): > 100 µM | TGI (IGROV1 ovarian): > 100 µM | TGI (OVCAR-3 ovarian): 34.9 µM | TGI (EKVX NSCLC): > 100 µM | TGI (SF-539 CNS): 45.1 µM | TGI (RXF 393 renal): > 100 µM | TGI (HS 578T breast): > 100 µM | TGI (HOP-92 NSCLC): 45.9 µM | TGI (CCRF-CEM leukemia): > 10 µM | TGI (MDA-MB-435): > 100 µM

CC(C)C(NC(=O)C(C(C)C)N(C)C)C(=O)N(C)C(C(=O)N1CCCC1C(=O)N1CCCC1C(=O)NCc1ccccc1)C(C)C (stereo unspecified) (ξNMe2Val-V[NMeV]PP-NHBn; configuration not given here)
TGI (NCI-H23 lung): > 100 µM | TGI (SNB-75 CNS): 53.8 µM | GI50 (NCI/ADR-RES ovarian): 0.264 µM | TGI (NCI/ADR-RES ovarian): 7.39 µM | TGI (BT-549 breast): 0.0788 µM | TGI (KM12 colon): < 0.0001 µM | TGI (RPMI-8226 leukemia): > 100 µM | TGI (HL-60(TB) leukemia): < 0.0001 µM | TGI (ACHN renal): > 100 µM | TGI (COLO 205 colon): 0.00016 µM | TGI (U251 CNS): 3.11 µM | TGI (NCI-H522 lung): 0.418 µM | TGI (SK-MEL-5 melanoma): 0.000265 µM | TGI (OVCAR-4 ovarian): > 100 µM | TGI (NCI-H460 lung): 0.0227 µM | TGI (MDA-N): < 0.0001 µM | TGI (LOX IMVI melanoma): 0.000253 µM | TGI (SF-268 CNS): > 100 µM | TGI (SK-OV-3 ovarian): > 100 µM | TGI (SW-620 colon): > 100 µM | TGI (CAKI-1 renal): > 100 µM | TGI (MDA-MB-231 breast): 0.000242 µM | TGI (SNB-19 CNS): > 100 µM | TGI (A549 NSCLC): > 100 µM | TGI (UACC-62 melanoma): 0.0105 µM | TGI (OVCAR-5 ovarian): 0.206 µM | TGI (UO-31 renal): > 100 µM | TGI (HOP-62 NSCLC): > 100 µM | TGI (786-0 renal): > 100 µM | TGI (MALME-3M melanoma): > 100 µM | TGI (DU-145 prostate): 0.0117 µM | TGI (IGROV1 ovarian): > 100 µM | GI50 (EKVX NSCLC): < 0.0001 µM | TGI (EKVX NSCLC): > 100 µM | TGI (RXF 393 renal): > 100 µM | TGI (CCRF-CEM leukemia): 0.00144 µM
